In the supplement of paper PMC10307832:

Assays:
Assay in all cases: relative viability (nuclei count vs DMSO), 5 days (fraction); higher = more cells survive
[1] = compound: CC1=CC=C(C=C1)C(=O)CN2C3=C(CCCC3)SC2=N [Pifithrin_alpha] + COc1cccc2cc(-c3nc([C@H]4CC[C@H](C(=O)O)CC4)n4ncnc(N)c34)[nH]c12 [OSI-027] (partner 0.5 µM)
In short: (§1)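 The day after seeding in 1536-well plates, lung cancer cell lines were treated by pin tool with a single drug, or with a fixed anchor-drug dose together with five library-drug doses (not always all listed) in √10 steps. After 5 days, a combined fix-and-stain solution (final 0.05% Triton X-100, 1% formaldehyde, 1 ug/ml Hoechst) was added. Nuclei counted on 4× images gave relative viability as treated counts over vehicle counts, reported as the median of duplicate plates.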

Bemcentinib + Vorinostat = compound: Nc1nc(Nc2ccc3c(c2)CC[C@@H](N2CCCC2)CC3)nn1-c1cc2c(nn1)-c1ccccc1CCC2 [Bemcentinib] + O=C(CCCCCCC(=O)Nc1ccccc1)NO [Vorinostat] (partner 1 µM)
In short: as §1

Bemcentinib + Crizotinib = compound: Nc1nc(Nc2ccc3c(c2)CC[C@@H](N2CCCC2)CC3)nn1-c1cc2c(nn1)-c1ccccc1CCC2 [Bemcentinib] + C[C@@H](Oc1cc(-c2cnn(C3CCNCC3)c2)cnc1N)c1c(Cl)ccc(F)c1Cl [Crizotinib] (partner 1 µM)
In short: as §1

Axitinib + Tozasertib = compound: CNC(=O)c1ccccc1Sc1ccc2c(/C=C/c3ccccn3)n[nH]c2c1 [Axitinib] + Cc1cc(Nc2cc(N3CCN(C)CC3)nc(Sc3ccc(NC(=O)C4CC4)cc3)n2)n[nH]1 [Tozasertib] (partner 0.1 µM)
In short: as §1

Cell Line	relative viability ([1]; first compound 1 µM)	relative viability ([1]; first compound 3.162 µM)	relative viability ([1]; first compound 10 µM)	relative viability ([1]; first compound 31.62 µM)	relative viability ([1]; first compound 100 µM)	relative viability (Bemcentinib + Vorinostat; first compound 0.04 µM)	relative viability (Bemcentinib + Vorinostat; first compound 0.1265 µM)	relative viability (Bemcentinib + Vorinostat; first compound 0.4 µM)	relative viability (Bemcentinib + Vorinostat; first compound 1.265 µM)	relative viability (Bemcentinib + Vorinostat; first compound 4 µM)	relative viability (Bemcentinib + Crizotinib; first compound 0.04 µM)	relative viability (Bemcentinib + Crizotinib; first compound 0.1265 µM)	relative viability (Bemcentinib + Crizotinib; first compound 0.4 µM)	relative viability (Bemcentinib + Crizotinib; first compound 1.265 µM)	relative viability (Bemcentinib + Crizotinib; first compound 4 µM)	relative viability (Axitinib + Tozasertib; first compound 0.005 µM)	relative viability (Axitinib + Tozasertib; first compound 0.01581 µM)	relative viability (Axitinib + Tozasertib; first compound 0.05 µM)	relative viability (Axitinib + Tozasertib; first compound 0.1581 µM)	relative viability (Axitinib + Tozasertib; first compound 0.5 µM)
SK-MES-1	0.575	0.59	0.527	0.396	0.511	1.1	1.38	1.17	1.23	1.24	1.03	0.955	0.998	1.14	1.06	0.996	0.904	0.818	0.947	1.07
NCI-H1648	0.226	0.277	0.234	0.235	0.252	0.598	0.362	0.385	0.386	0.457						0.506	0.643		0.483	0.602
PC-3 [JPC-3]	0.676	0.747	0.574	0.545	0.618	0.898	0.735	0.784	0.725	0.752	0.959	1.03	1	0.974	1.09	0.96	0.899	1	0.855	1.03
NCI-H1666	0.789	0.771	0.651	0.642	0.585	1.02	1.24	1.07	1	0.998	1.01	0.889	0.963	0.861	0.89	0.684	0.638	0.643	0.7	0.706
IA-LM						0.968	1.38	0.984	0.965	0.866	0.777	0.654	0.947	0.752	0.842					
HCC-78	0.349	0.388	0.34	0.326	0.349	0.456	0.449	0.394	0.514	0.39	0.322	0.344	0.334	0.334	0.328	0.6	0.493	0.493	0.477	0.446
HCC-366	0.787	0.605	0.538		0.48	0.32	0.43	0.441	0.303	0.433	0.524	0.902	0.583	0.629	0.383	0.135	0.116	0.133	0.136	0.142
NCI-H520	0.297	0.244	0.259	0.288	0.25	0.678	0.902	0.83	0.626	0.761	0.53	0.823	0.912	0.971	0.686	0.401		0.439	0.417	0.347
NCI-H1355	0.336	0.329	0.323	0.307	0.309	0.596	0.617	0.701	0.65	0.687	1.08	1.18	1.07	1.14	1.17	0.679	0.587	0.544	0.54	0.617
SW 1573	0.662	0.601	0.572	0.422	0.76	0.662	0.785	0.873	0.879	0.765	0.724	0.814	0.684	0.776	0.764	0.169	0.214	0.166	0.178	0.249
COR-L 105	0.6	0.667	0.591	0.64	0.495	0.751	0.985	0.918	0.933	0.826	0.638	0.843	0.969	0.641	0.621	0.356	0.422	0.331	0.438	0.364
COR-L23	0.843	0.822	0.616		0.613	0.468	0.47	0.522	0.477	0.521	0.65	0.787	0.729	0.784	0.56	0.212	0.205	0.24	0.244	0.278
NCI-H322M	0.536	0.531	0.503	0.419	0.508	0.863	0.931	0.836	0.952	0.899	1.02	0.971	0.944	1.05	1.09	0.453	0.435	0.432	0.437	0.527
NCI-H2347	0.467	0.467	0.431	0.328	0.367	0.544	0.596	0.718	0.67	0.575	0.783	1.01	0.612	0.669	0.627	0.589	0.524	0.609	0.498	0.675
RERF-LC-KJ	0.586	0.477	0.421	0.393	0.317	0.699	0.732	0.713	0.635	0.65	0.919	0.856	0.78	0.896	0.841	0.458	0.485	0.535	0.573	0.52
NCI-H2228	0.589	0.574	0.526	0.392	0.283	0.574	0.878	0.763	0.749	0.756		0.551	0.599	0.467	0.451	0.266	0.289	0.308	0.293	0.291
A549											0.786	0.795	0.966	0.824	0.742					
